Active and inactive are the calls of the source.
Columns and labels:
Details in all cases: filed as activator, time 90.0 min
Saccharomyces cerevisiae [1] = assay: Activation of chymotrypsin-like activity of yeast 20s proteasome using suc-LLVY-AMC as flurogenic substrate preincubated for 30 mins followed by substrate addition and measured after 1 hr by fluorescence assay
Saccharomyces cerevisiae [2] = assay: Activation of trypsin-like activity of yeast 20s proteasome using […] as flurogenic substrate preincubated for 30 mins followed by substrate addition and measured after 1 hr by fluorescence assay
Saccharomyces cerevisiae [3] = assay: Activation of PGPHL-peptidase activity of yeast 20s proteasome using […] as flurogenic substrate preincubated for 30 mins followed by substrate addition and measured after 1 hr by fluorescence assay

Measured: Activity

COc1cc([C@@H]2Oc3cc([C@H]4Oc5cc(O)cc(O)c5C(=O)[C@@H]4O)ccc3O[C@H]2CO)ccc1O
active: Saccharomyces cerevisiae [1] | Saccharomyces cerevisiae [2] | Saccharomyces cerevisiae [3]

COc1cc([C@H]2Oc3cc([C@H]4Oc5cc(O)cc(O)c5C(=O)[C@@H]4O)ccc3O[C@@H]2CO)ccc1O
active: Saccharomyces cerevisiae [1] | Saccharomyces cerevisiae [2] | Saccharomyces cerevisiae [3]
